From patent US20260109707A1, “HETEROBIFUNCTIONAL COMPOUNDS AND METHODS OF TREATING DISEASE” (Halda Therapeutics OpCo. Inc., priority 2022, published 2026)
Read-outs that look alike come from different tables or passages of the source.

How the values were obtained:
[1] = tested on: T-Rex 293 cell line SC3 cells having increased expression of androgen receptor protein due to exposure to doxycycline; assay: Cellular growth inhibition assay, T-Rex 293 SC3 cells with doxycycline (CellTiter-Glo, 72 hours); assay type: cell-based; details: T-Rex 293 SC3 cells with increased androgen receptor expression due to doxycycline (10 ng/mL)
How it was run: (§1)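 Doxycycline (10 ng/mL) was either included or omitted to toggle wild-type androgen receptor expression in SC3 cells, a T-Rex 293 clone, grown in stripped-serum, phenol red-free medium. After 72 hours with compound, viable cells were quantified by CellTiter-Glo 2.0.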

[2] = tested on: T-Rex 293 cell line SC3 cells lacking increased expression of androgen receptor protein; assay: Cellular growth inhibition assay, T-Rex 293 SC3 cells without doxycycline (CellTiter-Glo, 72 hours); assay type: cell-based; details: T-Rex 293 cell line SC3 cells not exposed to doxycycline (lacking increased androgen receptor expression)
How it was run: as §1

VCaP cells = assay: Cellular growth inhibition assay for VCaP cells (CellTiter-Glo, 72 hours); assay type: cell-based, human
How it was run: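 Luminescent viability signal after 72 h of compound exposure gave GI50 values by four-parameter nonlinear regression. Compounds were added in 0.5% DMSO to cells plated 24 h earlier at 5000/well in DMEM containing 10% FBS.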

| Structure (SMILES) | GI50 (VCaP cells; Homo sapiens, VCaP, 72 h) | GI50 (VCaP cells) | GI50 ([1]; 72 h) | GI50 ([2]; 72 h) | GI50 [1] | GI50 [2] |
| --- | --- | --- | --- | --- | --- | --- |
| Cc1sc2c(c1C)C(c1ccc(NCC3CCN(c4ncc(C(=O)N[C@H]5CC[C@H](Oc6ccc(C#N)c(Cl)c6)CC5)cn4)CC3)cc1)=NC(Cc1ncco1)c1nnc(C)n1-2 (stereo partly drawn) [I-786] | < 500 nM |  | < 500 nM | < 500 nM |  |  |
| Cc1sc2c(c1C)C(c1ccc(NC3CCCN(c4ncc(C(=O)N[C@H]5CC[C@H](Oc6ccc(C#N)c(Cl)c6)CC5)cn4)CC3)cc1)=NC(Cc1ncco1)c1nnc(C)n1-2 (stereo partly drawn) [I-789] | < 500 nM |  | < 500 nM | < 500 nM |  |  |
| Cc1sc2c(c1C)C(c1ccc(N[C@H]3CC[C@H](Nc4ncc(C(=O)N[C@H]5CC[C@H](Oc6ccc(C#N)c(Cl)c6)CC5)cn4)CC3)cc1)=NC(Cc1ncco1)c1nnc(C)n1-2 (stereo partly drawn) [I-790] | < 500 nM |  | < 500 nM | < 500 nM |  |  |
| Cc1sc2c(c1C)C(c1ccc(N3CCC(N4CCN(c5ncc(C(=O)N[C@H]6CC[C@H](Oc7ccc(C#N)c(Cl)c7)CC6)cn5)CC4)CC3)cc1)=NC(Cc1ncco1)c1nnc(C)n1-2 (stereo partly drawn) [I-792] | < 500 nM |  | < 500 nM | < 500 nM |  |  |
| Cc1sc2c(c1C)C(c1ccc(NCCCN3CCN(c4ncc(C(=O)N[C@H]5CC[C@H](Oc6ccc(C#N)c(Cl)c6)CC5)cn4)CC3)cc1)=NC(Cc1ncco1)c1nnc(C)n1-2 (stereo partly drawn) [I-793] | < 500 nM |  | < 500 nM | < 500 nM |  |  |
| Cc1sc2c(c1C)C(c1ccc(N3CC[C@@H](CNc4ncc(C(=O)N[C@H]5CC[C@H](Oc6ccc(C#N)c(Cl)c6)CC5)cn4)C3)cc1)=NC(Cc1ncco1)c1nnc(C)n1-2 (stereo partly drawn) [I-795] | 500 to 1500 nM |  | < 500 nM | < 500 nM |  |  |
| Cc1sc2c(c1C)C(c1ccc(N3CCCC(CN(C)c4ncc(C(=O)N[C@H]5CC[C@H](Oc6ccc(C#N)c(Cl)c6)CC5)cn4)C3)cc1)=NC(Cc1ncco1)c1nnc(C)n1-2 (stereo partly drawn) [I-797, N-((1r,4r)-4-(3-chloro-4-cyanophenoxy)cyclohexyl)-2-(methyl((1-(4-(2,3,9-trimethyl-6-(oxazol-2-ylmethyl)-6H-thieno[3,2-f][1,2,4]triazolo[4,3-a][1,4]diazepin-4-yl)phenyl)piperidin-3-yl)methyl)amino)pyrimidine-5-carboxamide] | < 500 nM |  | < 500 nM | < 500 nM |  |  |
| Cc1sc2c(c1C)C(c1ccc(N3CCN(C4CCN(c5ncc(C(=O)N[C@H]6CC[C@H](Oc7ccc(C#N)c(Cl)c7)CC6)cn5)CC4)CC3)cc1)=NC(Cc1ncco1)c1nnc(C)n1-2 (stereo partly drawn) [I-798] | < 500 nM |  | < 500 nM | < 500 nM |  |  |
| Cc1sc2c(c1C)C(c1ccc(NC3CC4CCCC(C3)N4c3ncc(C(=O)N[C@H]4CC[C@H](Oc5ccc(C#N)c(Cl)c5)CC4)cn3)cc1)=NC(Cc1ncco1)c1nnc(C)n1-2 (stereo partly drawn) [I-799] | < 500 nM |  |  |  | < 500 nM | > 3000 nM |
| Cc1sc2c(c1C)C(c1ccc(N3C4CC(=O)CC3CN(c3ncc(C(=O)N[C@H]5CC[C@H](Oc6ccc(C#N)c(Cl)c6)CC5)cn3)C4)cc1)=NC(Cc1ncco1)c1nnc(C)n1-2 (stereo partly drawn) [I-802] | < 500 nM |  |  |  | < 500 nM | 500 to 1500 nM |
| Cc1sc2c(c1C)C(c1ccc(N[C@H]3CCCCN(c4ncc(C(=O)N[C@H]5CC[C@H](Oc6ccc(C#N)c(Cl)c6)CC5)cn4)C3)cc1)=NC(Cc1ncco1)c1nnc(C)n1-2 (stereo partly drawn) [I-803] | < 500 nM |  | < 500 nM | > 3000 nM |  |  |
| Cc1sc2c(c1C)C(c1ccc(N3CCC4(CCCN(c5ncc(C(=O)N[C@H]6CC[C@H](Oc7ccc(C#N)c(Cl)c7)CC6)cn5)C4)C3)cc1)=NC(Cc1ncco1)c1nnc(C)n1-2 (stereo partly drawn) [I-804] | < 500 nM |  | < 500 nM | > 3000 nM |  |  |
| Cc1sc2c(c1C)C(c1ccc(N3C[C@@H]4[C@H](C3)[C@H]4Nc3ncc(C(=O)N[C@H]4CC[C@H](Oc5ccc(C#N)c(Cl)c5)CC4)cn3)cc1)=NC(Cc1ncco1)c1nnc(C)n1-2 (stereo partly drawn) [I-805] | < 500 nM |  | < 500 nM | < 500 nM |  |  |
| Cc1sc2c(c1C)C(c1ccc(C3CCC4(CCN(c5ccc(C(=O)N[C@H]6CC[C@H](Oc7ccc(C#N)c(Cl)c7)CC6)nn5)C4)C3)cc1)=N[C@@H](C)c1nnc(C)n1-2 (stereo partly drawn) [I-821, N-[4-(3-chloro-4-cyano-phenoxy)cyclohexyl]-6-[8-[4-[(9S)-4,5,9,13-tetramethyl-3-thia-1,8,11,12-tetrazatricyclo[8.3.0.02,6]trideca-2(6),4,7,10,12-pentaen-7-yl]phenyl]-2-azaspiro[4.4]nonan-2-yl]pyridazine-3-carboxamide] | < 500 nM |  | < 500 nM | < 500 nM |  |  |

Second part, led by results:

| GI50 (VCaP cells; Homo sapiens, VCaP, 72 h) | GI50 (VCaP cells) | Structure (SMILES) | GI50 ([1]; 72 h) | GI50 ([2]; 72 h) | GI50 [1] | GI50 [2] |
| --- | --- | --- | --- | --- | --- | --- |
| 500 to 1500 nM |  | Cc1sc2c(c1C)C(c1ccc(NCC3CCCCN3c3ncc(C(=O)N[C@H]4CC[C@H](Oc5ccc(C#N)c(Cl)c5)CC4)cn3)cc1)=NC(Cc1ncco1)c1nnc(C)n1-2 (stereo partly drawn) [I-787] | < 500 nM | < 500 nM |  |  |
| < 500 nM |  | Cc1sc2c(c1C)C(c1ccc(N3CCOC4(CCN(c5ncc(C(=O)N[C@H]6CC[C@H](Oc7ccc(C#N)c(Cl)c7)CC6)cn5)CC4)C3)cc1)=NC(Cc1ncco1)c1nnc(C)n1-2 (stereo partly drawn) [I-794] | < 500 nM | > 3000 nM |  |  |
| < 500 nM |  | Cc1sc2c(c1C)C(c1ccc(N[C@H]3CC[C@H](CNc4ncc(C(=O)N[C@H]5CC[C@H](Oc6ccc(C#N)c(Cl)c6)CC5)cn4)CC3)cc1)=NC(Cc1ncco1)c1nnc(C)n1-2 (stereo partly drawn) [I-796] | < 500 nM | < 500 nM |  |  |
| < 500 nM |  | Cc1sc2c(c1C)C(c1ccc(NCCC3CCCN(c4ncc(C(=O)N[C@H]5CC[C@H](Oc6ccc(C#N)c(Cl)c6)CC5)cn4)C3)cc1)=NC(Cc1ncco1)c1nnc(C)n1-2 (stereo partly drawn) [I-800] | < 500 nM | < 500 nM |  |  |
| < 500 nM |  | Cc1sc2c(c1C)C(c1ccc(N[C@@H]3CCC[C@H](Nc4ncc(C(=O)N[C@H]5CC[C@H](Oc6ccc(C#N)c(Cl)c6)CC5)cn4)C3)cc1)=NC(Cc1ncco1)c1nnc(C)n1-2 (stereo partly drawn) [I-801] | < 500 nM | < 500 nM |  |  |
| < 500 nM |  | Cc1sc2c(c1C)C(c1ccc(NCCCC3CCN(c4ncc(C(=O)N[C@H]5CC[C@H](Oc6ccc(C#N)c(Cl)c6)CC5)cn4)CC3)cc1)=NC(Cc1ncco1)c1nnc(C)n1-2 (stereo partly drawn) [I-806] | < 500 nM | < 500 nM |  |  |
| < 500 nM |  | Cc1sc2c(c1C)C(c1ccc(NC[C@H]3CC[C@H](CNc4ncc(C(=O)N[C@H]5CC[C@H](Oc6ccc(C#N)c(Cl)c6)CC5)cn4)CC3)cc1)=NC(Cc1ncco1)c1nnc(C)n1-2 (stereo partly drawn) [I-807] | < 500 nM | < 500 nM |  |  |
| 500 to 1500 nM |  | Cc1sc2c(c1C)C(c1ccc(NCC3CC4(C3)CN(c3ncc(C(=O)N[C@H]5CC[C@H](Oc6ccc(C#N)c(Cl)c6)CC5)cn3)C4)cc1)=NC(Cc1ncco1)c1nnc(C)n1-2 (stereo partly drawn) [I-808] | < 500 nM | > 3000 nM |  |  |
|  | < 500 nM | Cc1sc2c(c1C)C(c1ccc(C3CCC4(CCN(c5ccc(C(=O)N[C@H]6CC[C@H](Oc7ccc(C#N)c(Cl)c7)CC6)nn5)C4)C3)cc1)=N[C@@H](C)c1nnc(C)n1-2 (stereo partly drawn) [I-822, N-[4-(3-chloro-4-cyano-phenoxy)cyclohexyl]-6-[8-[4-[(9S)-4,5,9,13-tetramethyl-3-thia-1,8,11,12-tetrazatricyclo[8.3.0.02,6]trideca-2(6),4,7,10,12-pentaen-7-yl]phenyl]-2-azaspiro[4.4]nonan-2-yl]pyridazine-3-carboxamide] |  |  | < 500 nM | < 500 nM |
